From patent US9249147B2, “Tyrosine kinase inhibitors” (CHEMBRIDGE CORPORATION, priority 2008, dated 2016)
pIC50: −log10 of the molar value. Values after ≈ are worked out from the molar mass of the structure shown. Counter-ions that a name gives are not always drawn. Like-named read-outs stand apart in the source and are kept apart here.

How the values were obtained:
[1] = Partition Coefficient (Log D, n-octanol/PBS, pH 7.4); format: physicochemical; settings: 1.0E−04 M; for logD: read-out: Partition Coefficient Log D, Weighed Average of Three Replicates
[2] = Aqueous Solubility (PBS, pH 7.4); format: physicochemical; settings: pH 7.4, 2.0E−04 M; for solubility: pH 7.4, PBS
IL-8 in A549 cells = experiment: PMA-induced IL-8 levels in A549 cells, with or without RU-486; format: cell-based; settings: 4 hr treatments
PC-12 cells = experiment: PC-12 cell cytotoxicity; format: cell-based; settings: FIG. 13
MMP-1 in A549 cells = experiment: PMA induced MMP-1 production in A549 cells; format: cell-based; settings: one hour treatment
FKBP51 (GR pathway) = experiment: GR specific anti-inflammatory marker FKBP51 in A549 cells; format: cell-based
PC12 cells = experiment: NGF-stimulated neurite outgrowth in PC12 cells; format: cell-based; settings: 100 nM compound, NGF 100 ng/ml, 6 days
Procedure: In chronic pain states, neurons form outgrowths which sensitize them to pain. NGF-induced neurite outgrowth was used as an assay for TrkA-dependent chronic/neuropathic pain activity.
Methods: PC12 cells were grown in 2% FBS and treated with or without NGF (100 ng/ml) 30 min before adding of vehicle or TRKA compounds for 6 days, changing media on day 3. On day 6 cells were fixed and stained for SRB before photographed for neurite outgrowth.

IRK = target: T1, IRK (Homo sapiens, UniProt P06213); experiment: IRK (insulin receptor kinase) assay; format: biochemical; settings: Table 3A; read-out: Cell Free IC50 IRK
T1 construct: 6×His- or GST-tagged kinase domain fragments of the corresponding RTKs expressed in baculovirus system; host or cells: baculovirus system
Summary of the method: (§1)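 The AlphaScreen PT66 format of the NPM-ALK assay was applied with minor modifications to commercial recombinant His/GST-tagged kinase domains. Compound (0.078125–40 μM) was incubated 30 min at RT with 10 μM ATP and biotinylated poly-GT in Tris pH 7.5/MgCl2/MnCl2/DTT buffer, then beads 60 min. Read at 520–680 nm; IC50 and Ki derived.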

ALK = ALK (Homo sapiens, UniProt Q9UM73); experiment: ALK kinase assay (Kinase-Glo / AlphaScreen, purified NPM-ALK); format: biochemical; design: fused to the complete intracytoplasmic portion of ALK containing the functional tyrosine kinase domain; 6xHis; made in house; host or cells: insect cells; the other entry of the earlier key: NPM1 (P06748, Nucleophosmin);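 also: recombinant baculovirus-expressed ALK kinase domain, activity read either as leftover ATP by Kinase-Glo luminescence or as poly(Glu-Tyr) phosphorylation by anti-phosphotyrosine AlphaScreen proximity signal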
TRKA = TRKA (Homo sapiens, UniProt P04629); experiment: TRKA kinase assay; format: biochemical; design: 6×His- or GST-tagged kinase domain fragments of the corresponding RTKs expressed in baculovirus system; host or cells: baculovirus system; settings: Table 3A; read-out: Cell Free IC50 TRKA
Karpas299 = experiment: Cell proliferation inhibition, ALCL line Karpas299; format: cell-based; settings: Homo sapiens, KARPAS-299; Table 3A; read-out: Cellular IC50 K-299
Description: The IL-3-dependent lymphoid cell line BaF3 or BaF3 rendered IL-3-independent by engineered expression of NPM-ALK were used in parallel to test each candidate inhibitor. Control wells contained DMSO solvent without test compound. Specific inhibition of ALK signaling is indicated in the assay by impairment of NPM-ALK-expressing BaF3 cell growth without alterations in the growth of parental BaF3. This colorimetric assay of cell proliferation and viability is based upon reduction of the yellow monotetrazolium salt XTT to a water-soluble orange formazan dye, a reaction catalyzed by mitochondrial dehydrogenases in living cells only (Cell Proliferation Kit II, Cat. #1 465 015, Roche Biochemicals). In addition to testing compounds for their ability to impair the growth of BaF3 cells engineered to express NPM-ALK, the NPM-ALK-positive human lymphoma cell line Karpas-299 (Deutsche Sammlung von Mikroorganismen and Zellkulturen GmbH (DSMZ) no. ACC 31), the human BCR-ABL-positive chronic myeloid leukemia cell line K562 (American Type Culture Collection (ATCC) no. CCL-243), and the human T-cell leukemia line Jurkat (DSMZ no. ACC 282) were tested in these assays.
Each compound stock in 100% DMSO was first diluted using 8% DMSO/culture medium to produce a working stock of 250 μM compound. This working stock was then used to perform serial 1:1 dilutions (i.e., 125 μM, 62.5 μM, 31.25 μM, 15.625 μM, 7.8125 μM, and 3.90625 μM) using DMSO-free culture medium. Twenty (20) μL of each of these dilutions was then added to the cells (2×10^4 cells in 80 μL culture medium per 96-well) to obtain the final test compound concentrations (i.e., 25 μM, 12.5 μM, 6.25 μM, 3.125 μM, 1.5625 μM, and 0.78125 μM).
(§2) Cell proliferation inhibition assays were run for compound (II) with the five target NPM-ALK-dependent ALCL cell lines (Karpas 299, SuDHL-1, JB6, SupM2, UConn) and 12 unrelated cell lines (HEK293, CHO-K1, MCF7, HepG2, H292, H520, H1581, H596, H522, CHA-GO-K1, UMC-11, SK-MES1). […] The pronounced target cell-killing effect is also observed (molecular mechanisms to be determined).

[3] = Liver microsome stability, Human LM-P1 / HLM; format: in vitro ADME; settings: for CLint scaled: Table 3A, human liver microsomes, read-out: CL HLM; for half-life / microsomal CLint: human, liver microsomes; for microsomal CLint: read-out: Human LM-P1 CL
Description: Metabolic stability of compound (II) (labeled as CRL241 below) in vitro has been tested in a standard in vitro microsomal stability assay in human microsomes (Cerep Study 13170).

[4] = Liver microsome stability, Mouse LM-P1 / MLM; format: in vitro ADME; settings: for CLint scaled: Table 3A, mouse liver microsomes, read-out: CL MLM; for half-life / microsomal CLint: mouse, liver microsomes; for microsomal CLint: read-out: Mouse LM-P1 CL
U937 = experiment: Cellular IC50, U937; format: cell-based; settings: Homo sapiens, U-937; Table 3A
SUDHL-1 = experiment: Cellular IC50, SUDHL-1; format: cell-based; settings: Homo sapiens, SU-DHL-1; Table 3A
Description: as §2

IGF1R = target: T2, IGF1R (Homo sapiens, UniProt P08069); experiment: IGF1R kinase assay; format: biochemical; settings: Table 3A; read-out: Cell Free IC50 IGF1R
T2 construct: 6×His- or GST-tagged kinase domain fragments of the corresponding RTKs expressed in baculovirus system; host or cells: baculovirus system
Summary of the method: as §1

[5] = Liver microsome stability, Rat LM-P1; format: in vitro ADME; settings: liver microsomes; for microsomal CLint: read-out: Rat LM-P1 CL
[6] = Caco-2, pH 6.5
[7] = Caco-2 (TC7) A-B Permeability test (pH 6.5/7.4); settings: A-B Permeability (TC7, pH 6.5/7.4), test concentration 1.0E−05 M
[8] = Tables 9C, 9D, read-out: Solubility Mean
[9] = individual data, read-out: Solubility 1st/2nd
[10] = Table 8D, read-out: GTx-ALK IC50

Chain of ALK (Q9UM73 with tags, fused parts or gaps): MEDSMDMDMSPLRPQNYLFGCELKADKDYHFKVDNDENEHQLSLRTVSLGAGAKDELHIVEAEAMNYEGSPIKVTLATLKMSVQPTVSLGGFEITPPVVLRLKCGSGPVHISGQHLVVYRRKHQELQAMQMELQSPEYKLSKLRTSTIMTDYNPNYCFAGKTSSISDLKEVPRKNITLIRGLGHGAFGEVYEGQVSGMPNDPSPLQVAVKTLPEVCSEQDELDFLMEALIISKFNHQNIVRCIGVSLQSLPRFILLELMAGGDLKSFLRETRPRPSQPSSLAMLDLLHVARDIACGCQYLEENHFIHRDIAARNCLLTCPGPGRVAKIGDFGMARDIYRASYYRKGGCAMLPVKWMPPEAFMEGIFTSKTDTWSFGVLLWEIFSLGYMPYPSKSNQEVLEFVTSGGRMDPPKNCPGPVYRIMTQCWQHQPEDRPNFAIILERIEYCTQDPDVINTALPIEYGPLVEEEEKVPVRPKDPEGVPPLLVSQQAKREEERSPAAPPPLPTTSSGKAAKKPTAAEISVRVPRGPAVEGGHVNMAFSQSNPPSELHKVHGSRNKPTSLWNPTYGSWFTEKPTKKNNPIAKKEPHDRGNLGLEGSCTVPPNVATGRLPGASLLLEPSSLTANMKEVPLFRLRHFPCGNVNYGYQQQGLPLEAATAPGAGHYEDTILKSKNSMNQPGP
T1 sequence (P06213 1023-1298 limits assumed): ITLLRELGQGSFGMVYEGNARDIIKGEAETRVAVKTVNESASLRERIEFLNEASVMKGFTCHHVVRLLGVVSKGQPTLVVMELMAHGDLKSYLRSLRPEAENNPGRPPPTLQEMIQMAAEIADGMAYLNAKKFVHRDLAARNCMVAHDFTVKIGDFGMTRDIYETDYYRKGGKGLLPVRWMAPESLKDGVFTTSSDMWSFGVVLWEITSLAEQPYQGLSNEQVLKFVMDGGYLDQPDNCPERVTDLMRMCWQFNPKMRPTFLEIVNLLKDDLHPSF
Chain of TRKA (P04629 510-781 limits assumed): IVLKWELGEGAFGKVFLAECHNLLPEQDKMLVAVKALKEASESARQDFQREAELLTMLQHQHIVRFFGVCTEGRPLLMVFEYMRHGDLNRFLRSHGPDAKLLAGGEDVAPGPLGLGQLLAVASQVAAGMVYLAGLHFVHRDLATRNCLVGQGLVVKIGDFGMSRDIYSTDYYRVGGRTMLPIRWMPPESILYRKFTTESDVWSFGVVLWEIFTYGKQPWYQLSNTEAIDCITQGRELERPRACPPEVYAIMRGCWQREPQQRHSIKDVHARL
T2 sequence (P08069 999-1274 limits assumed): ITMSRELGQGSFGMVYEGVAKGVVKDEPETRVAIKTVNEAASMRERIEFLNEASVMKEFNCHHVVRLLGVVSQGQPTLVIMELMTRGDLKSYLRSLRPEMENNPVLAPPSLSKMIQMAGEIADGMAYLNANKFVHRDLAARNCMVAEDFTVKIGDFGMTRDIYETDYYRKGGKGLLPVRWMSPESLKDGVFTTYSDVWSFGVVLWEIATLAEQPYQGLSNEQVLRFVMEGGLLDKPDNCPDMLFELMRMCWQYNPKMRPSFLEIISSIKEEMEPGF

Compound: CC/C(=C(/CC)c1ccc(O)cc1)c1ccc(O)cc1 [Diethylstilbestrol]
- logD [1]: > 5
- Solubility 1st/2nd ([2]; individual data): 8.59 μm
- solubility [2, 8]: 8.6 µM (≈ 2.31 µg/mL)
- solubility [2, 9]: 8.6 µM (≈ 2.31 µg/mL)

Compound: COCCc1ccc(OCC(O)CNC(C)C)cc1 (centres unmarked) [Metoprolol tartrate]
- logD [1]: -0.46
- Solubility 1st/2nd ([2]; individual data): 188.93 μm
- solubility [2, 8]: 190 µM
- solubility [2, 9]: 190 µM

Compound: O=C1NC(=O)C(c2ccccc2)(c2ccccc2)N1 [Phenytion]
- Partition Coefficient Log D, Weighed Average of Three Replicates [1]: 2.34

Compound: CO[C@H]1/C=C/O[C@@]2(C)Oc3c(C)c(O)c4c(O)c(c(/C=N/N5CCN(C)CC5)c(O)c4c3C2=O)NC(=O)/C(C)=C\C=C\[C@H](C)[C@H](O)[C@@H](C)[C@@H](O)[C@@H](C)[C@H](OC(C)=O)[C@@H]1C [Rifampicin]
- logD [1]: 1.23
- Solubility 1st/2nd ([2]; individual data): 186.51 μm
- solubility [2, 8]: 184 µM (≈ 151 µg/mL)
- solubility [2, 9]: 181 µM (≈ 149 µg/mL)

Compound: C[C@@H](Cc1c(F)c(F)cc(F)c1F)Nc1cc[nH]c(=O)c1-c1nc2cc3c(cc2[nH]1)CN(CCN1CCCC1)C3=O [compound (III)]
- Effect of GR antagonist RU-486 on inhibition of PMA-induced IL-8 levels (IL-8 in A549 cells): not affected or possibly were more potent
- PC-12 cell cytotoxicity (PC-12 cells): lack of PC-12 cell cytotoxicity
- Concentration required for complete inhibition of PMA induced MMP-1 production (MMP-1 in A549 cells): ~1 µM
- Activation of GR pathway (FKBP51 marker) (FKBP51 (GR pathway)): did not active the GR pathway
- NGF-stimulated neurite outgrowth (PC12 cells): inhibited the neurite outgrowth

Compound: C[C@@H](Cc1cc(F)cc(F)c1F)Nc1cc[nH]c(=O)c1-c1nc2cc3c(cc2[nH]1)CN(CCN1CCCC1)C3=O [compound (VII)]
- PC-12 cell cytotoxicity (PC-12 cells): lack of PC-12 cell cytotoxicity
- NGF-stimulated neurite outgrowth (PC12 cells): inhibited the neurite outgrowth

Compound: Cc1ccc(F)cc1C[C@H](C)Nc1cc[nH]c(=O)c1-c1nc2cc3c(cc2[nH]1)C(=O)N(CCN1CCCC1)C3 [drawing 360]
- pIC50 (IRK): 6.60
- pIC50 (ALK; Table 3A, read-out: Cell Free IC50 ALK): 8.70
- pIC50 (TRKA): 8.70
- pIC50 (Karpas299): 7.09
- CLint scaled [3]: < 5.8 mL/min/kg
- CLint scaled [4]: 52.9 mL/min/kg
- pIC50 (U937): < 5.52

Compound: Cc1ccc(F)cc1C[C@H](C)Nc1cc[nH]c(=O)c1-c1nc2cc3c(cc2[nH]1)CN(CCN(C)C)C3=O [drawing 361]
- pIC50 (SUDHL-1): 7.52
- pIC50 (IRK): 6.28
- pIC50 (TRKA): 8.52
- pIC50 (Karpas299): 6.81
- CLint scaled [3]: < 5.8 mL/min/kg
- pIC50 (IGF1R): 6.34
- CLint scaled [4]: 46 mL/min/kg
- pIC50 (U937): < 5.52

Compound: Cc1ccc(F)cc1C[C@H](C)Nc1cc[nH]c(=O)c1-c1nc2cc3c(cc2[nH]1)C(=O)N(CCN1CCCC1)C3 [drawing 368]
- pIC50 (ALK; [10]): 8.70
- half-life [3]: > 20 min
- microsomal CLint [3]: < 5.8 µL/min/mg
- half-life [4]: 13.1 min
- microsomal CLint [4]: 52.9 µL/min/mg
- half-life [5]: 8.71 min
- microsomal CLint [5]: 79.6 µL/min/mg

Compound: C[C@@H](Cc1cc(F)cc(F)c1F)Nc1cc[nH]c(=O)c1-c1nc2cc3c(cc2[nH]1)CN(CCN1CCCC1)C3=O [drawing 369]
- pIC50 (ALK; [10]): 8.30
- half-life [3]: > 120 min
- microsomal CLint [3]: < 5.8 µL/min/mg
- half-life [4]: 22.1 min
- microsomal CLint [4]: 31.4 µL/min/mg
- half-life [5]: 5 min
- microsomal CLint [5]: 138 µL/min/mg

Compound: C[C@@H](Cc1c(F)c(F)cc(F)c1F)Nc1cc[nH]c(=O)c1-c1nc2cc3c(cc2[nH]1)CN(CCN1CCCC1)C3=O [drawing 370]
- pIC50 (ALK; [10]): 8.52
- half-life [3]: > 120 min
- microsomal CLint [3]: < 5.8 µL/min/mg
- half-life [4]: 29 min
- microsomal CLint [4]: 23.9 µL/min/mg
- half-life [5]: 4.36 min
- microsomal CLint [5]: 159 µL/min/mg

Compound: CC[C@]1(O)C[C@@H]2CN(CCc3c([nH]c4ccccc34)[C@@](C(=O)OC)(c3cc4c(cc3OC)N(C)[C@H]3[C@@](O)(C(=O)OC)[C@H](OC(C)=O)[C@]5(CC)C=CCN6CC[C@]43[C@@H]65)C2)C1 [vinblastin]
- Mean Permeability [6]: 0.0 10^−6 cm/s
- Permeability 1st [6]: 0.82 10^−6 cm/s
- Permeability 2nd [6]: 0.02 10^−6 cm/s
- Present Recovery 1st ([7]; 1st replicate): 73%
- Present Recovery 2nd ([7]; 2nd replicate): 57%
- Mean Recovery ([7]; mean of n = 2): 65%
